From US20250025443A1, “COMPOUNDS AND METHODS FOR TREATING CORONA VIRUSES” (CLEAR CREEK BIO, INC., priority 2021, published 2025)

Biological target: SARS-CoV-2 Papain-Like Protease (PLpro) (Severe acute respiratory syndrome coronavirus 2 (2019-nCoV) (SARS-CoV-2), UniProt P0DTD1)
Experiment: biochemical
Settings: PLpro enzymatic fluorescence assay; class symbols; read-out: PLpro IC50

Row | SMILES | IC50
1 | Cc1cc(-c2cc(C3(NC(=O)c4cc(OC[C@@H]5CCN5C)ccc4C)CC3)c3cccnc3c2)n[nH]1 [Compound 651, (S)-2-Methyl-N-(1-(7-(5-methyl-1H-pyrazol-3-yl)quinolin-5-yl)cyclopropyl)-5-((1-methylazetidin-2-yl)methoxy)benzamide] | < 100 nM
2 | Cc1nnc(-c2cc(C3(NC(=O)c4cc(OC[C@@H]5CCN5C)ccc4C)CC3)c3cccnc3c2)o1 [Compound 693, (S)-2-Methyl-N-(1-(7-(5-methyl-1,3,4-oxadiazol-2-yl)quinolin-5-yl)cyclopropyl)-5-((1-methylazetidin-2-yl)methoxy)benzamide] | < 100 nM
3 | Cc1nnc(-c2cc(C3(NC(=O)c4cc(OC[C@@H]5CCN5)ccc4C)CC3)c3cccnc3c2)s1 [Compound 673, (S)-5-(Azetidin-2-ylmethoxy)-2-methyl-N-(1-(7-(5-methyl-1,3,4-thiadiazol-2-yl)quinolin-5-yl)cyclopropyl)benzamide] | < 100 nM
4 | Cc1cccc(/C=C/c2cc(C3(NC(=O)c4cc(OC[C@@H]5CCN5)ccc4C)CC3)c3cccnc3c2)c1 [Compound 704, (S,E)-5-(Azetidin-2-ylmethoxy)-2-methyl-N-(1-(7-(3-methylstyryl)quinolin-5-yl)cyclopropyl)benzamide] | < 100 nM
5 | Cc1ccc(OC[C@@H]2CCN2C)cc1C(=O)NC1(c2cc(OCC(C)(C)C)cc3ncccc23)CC1 [Compound 787, (S)-2-Methyl-5-((1-methylazetidin-2-yl)methoxy)-N-(1-(7-(neopentyloxy)quinolin-5-yl)cyclopropyl)benzamide] | < 100 nM
6 | Cc1ccc(OCC2CCN2C)cc1C(=O)NC1(c2ccnc3ccccc23)CC1 (centres unmarked) [Compound 473, 2-Methyl-5-((1-methylazetidin-2-yl)methoxy)-N-(1-(quinolin-4-yl)cyclopropyl)benzamide] | < 100 nM
7 | Cc1ccc(OC[C@@H]2CCN2)cc1C(=O)NC1(c2cc(-c3cc4ccccc4s3)cc3ncccc23)CC1 [Compound 695, (S)-5-(Azetidin-2-ylmethoxy)-N-(1-(7-(benzo[b]thiophen-2-yl)quinolin-5-yl)cyclopropyl)-2-methylbenzamide] | < 100 nM
8 | C=Cc1cc(C2(NC(=O)c3cc(OC[C@@H]4CCN4C)ccc3C)CC2)c2cccnc2c1 [Compound 570, (S)-2-Methyl-5-((1-methylazetidin-2-yl)methoxy)-N-(1-(7-vinylquinolin-5-yl)cyclopropyl)benzamide] | < 100 nM
9 | Cc1cc(-c2cc(C3(NC(=O)c4cc(OC[C@@H]5CCN5C)ccc4C)CC3)c3cccnc3c2)c(C)o1 [Compound 671, (S)—N-(1-(7-(2,5-Dimethylfuran-3-yl)quinolin-5-yl)cyclopropyl)-2-methyl-5-((1-methylazetidin-2-yl)methoxy)benzamide] | < 100 nM
10 | COc1cc(C2(NC(=O)c3cc(OC[C@@H]4CCN4C)ccc3C)CC2)c2ccc(C)nc2c1 [Compound 625, (S)-N-(1-(7-Methoxy-2-methylquinolin-5-yl)cyclopropyl)-2-methyl-5-((1-methylazetidin-2-yl)methoxy)benzamide] | < 100 nM
11 | CC(=O)Nc1cc(C2(NC(=O)c3cc(OCC4CCN4C)ccc3C)CC2)c2ccccc2c1 (centres unmarked) [Compound 500, N-(1-(3-Acetamidonaphthalen-1-yl)cyclopropyl)-2-methyl-5-((1-methylazetidin-2-yl)methoxy)benzamide] | < 100 nM
12 | CC(c1cc(-c2cccs2)cc2ccccc12)N1CCC(C(=O)NCc2cccc(F)c2)CC1 (centres unmarked) [Compound 599, N-(3-Fluorobenzyl)-1-(1-(3-(thiophen-2-yl)naphthalen-1-yl)ethyl)piperidine-4-carboxamide] | 1000 to 5000 nM
13 | COc1cc(C2(NC(=O)c3cc(OC[C@@H]4CCN4C)ccc3C)CC2)c2ccc(C(F)(F)F)nc2c1 [Compound 817, (S)-N-(1-(7-Methoxy-2-(trifluoromethyl)quinolin-5-yl)cyclopropyl)-2-methyl-5-((1-methylazetidin-2-yl)methoxy)benzamide] | < 100 nM

Same assay, conditions: SARS-CoV-2 PLpro enzymatic fluorescence assay; read-out: PLpro IC50

Row | SMILES | IC50
14 | Cc1ccc(OCC2CCN2C)cc1C(=O)NC1(c2cccc3nc(Cl)ccc23)CC1 (centres unmarked) [Compound 436, N-(1-(2-Chloroquinolin-5-yl)cyclopropyl)-2-methyl-5-((1-methylazetidin-2-yl)methoxy)benzamide] | < 100 nM
15 | Cc1cc2c(cc1C(=O)NC1(c3cccc4ccccc34)CC1)NCCN2 [Compound 297, 7-Methyl-N-(1-(naphthalen-1-yl)cyclopropyl)-1,2,3,4-tetrahydroquinoxaline-6-carboxamide] | 100 to 1000 nM
16 | Cc1ccc(OCCN(C)C)cc1C(=O)NC1(c2cccc(C)c2Br)CC1 [Compound 317, N-(1-(2-Bromo-3-methylphenyl)cyclopropyl)-5-(2-(dimethylamino)ethoxy)-2-methylbenzamide] | 100 to 1000 nM
17 | Cc1cc2cc(-c3ccccc3)[nH]c2cc1C(=O)NC1(c2cccc3ccccc23)CC1 [Compound 226, 5-Methyl-N-(1-(naphthalen-1-yl)cyclopropyl)-2-phenyl-1H-indole-6-carboxamide] | > 5000 nM
18 | Cc1ccc(OC[C@@H]2CCN2C)cc1C(=O)NC1(c2cc(Br)cc3ncccc23)CC1 [Compound 563, (S)-N-(1-(7-Bromoquinolin-5-yl)cyclopropyl)-2-methyl-5-((1-methylazetidin-2-yl)methoxy)benzamide] | < 100 nM
19 | Cc1ccc(OCCN(C)C)c(F)c1C(=O)NC1(c2cccc3ccccc23)CC1 [Compound 311, 3-(2-(Dimethylamino)ethoxy)-2-fluoro-6-methyl-N-(1-(naphthalen-1-yl)cyclopropyl)benzamide] | 100 to 1000 nM
20 | Cc1ccc(OCCNC(=O)OC(C)(C)C)cc1C(=O)N[C@H](C)c1cccc2ccccc12 [Compound 158, (R)-tert-Butyl(2-(4-methyl-3-((1-(naphthalen-1-yl)ethyl)carbamoyl)phenoxy)ethyl)carbamate] | 1000 to 5000 nM
21 | Cc1cc2ccc(=O)[nH]c2cc1C(=O)N[C@H](C)c1cccc2ccccc12 [Compound 167, (R)-6-Methyl-N-(1-(naphthalen-1-yl)ethyl)-2-oxo-1,2-dihydroquinoline-7-carboxamide] | > 5000 nM
22 | Cc1cc2cc(CN)[nH]c2cc1C(=O)NCc1cccc2ccccc12 [Compound 241, 2-(Aminomethyl)-5-methyl-N-(naphthalen-1-ylmethyl)-1H-indole-6-carboxamide] | > 5000 nM
23 | Cc1ccc(OC[C@@H]2CCN2C)cc1C(=O)NC1(c2cc(NS(C)(=O)=O)cc3ncccc23)CC1 [Compound 786, (S)-2-Methyl-5-((1-methylazetidin-2-yl)methoxy)-N-(1-(7-(methylsulfonamido)quinolin-5-yl)cyclopropyl)benzamide] | < 100 nM
24 | CNCc1cc2cc(C)c(C(=O)NC3(c4cccc5ccccc45)CC3)cc2[nH]1 [Compound 221] | < 100 nM
25 | Cc1cc2cc(C3COCCN3)[nH]c2cc1C(=O)NC1(c2cccc3ccccc23)CC1 (centres unmarked) [Compound 260, 5-Methyl-2-(morpholin-3-yl)-N-(1-(naphthalen-1-yl)cyclopropyl)-1H-indole-6-carboxamide] | 100 to 1000 nM
26 | COc1cc(C2(NC(=O)c3cc(OC[C@@H]4CCN4C)ccc3C)CC2)c2cccnc2c1 [Compound 527, (S)-N-(1-(7-Methoxyquinolin-5-yl)cyclopropyl)-2-methyl-5-((1-methylazetidin-2-yl)methoxy)benzamide] | < 100 nM
27 | Cc1cc2cc(C(N)=O)[nH]c2cc1C(=O)NC1(c2cccc3ccccc23)CC1 [Compound 205] | 100 to 1000 nM
28 | Cc1ccc(OCC2CCN2C)cc1C(=O)NC1(c2cc(C(C)C)cc3ccccc23)CC1 (centres unmarked) [Compound 521, N-(1-(3-Isopropylnaphthalen-1-yl)cyclopropyl)-2-methyl-5-((1-methylazetidin-2-yl)methoxy)benzamide] | < 100 nM
29 | C[C@@H](NC(=O)c1ccc2nc[nH]c2c1)c1cccc2ccccc12 [Compound 125, (R)-N-(1-(Naphthalen-1-yl)ethyl)-1H-benzo[d]imidazole-6-carboxamide] | > 5000 nM
30 | Cc1cc2c(cc1C(=O)NC1(c3cccc4ccccc34)CC1)NC(=O)C2 [Compound 249, 5-Methyl-N-(1-(naphthalen-1-yl)cyclopropyl)-2-oxoindoline-6-carboxamide] | 100 to 1000 nM
31 | Cc1ccc(OCC2CC(C)(C)N2)cc1C(=O)NC1(c2cccc3ccccc23)CC1 (centres unmarked) [Compound 534, 5-((4,4-Dimethylazetidin-2-yl)methoxy)-2-methyl-N-(1-(naphthalen-1-yl)cyclopropyl)benzamide] | < 100 nM
32 | Cc1ccc(N2CCNCC2)cc1C(=O)NC1(c2cccc3ccccc23)CC1 [Compound 410, 2-Methyl-N-(1-(naphthalen-1-yl)cyclopropyl)-5-(piperazin-1-yl)benzamide] | < 100 nM
33 | Cc1ccc(NC2CNC2)cc1C(=O)NC1(c2cccc(-c3cccs3)c2)CC1 [Compound 169, 5-(Azetidin-3-ylamino)-2-methyl-N-(1-(3-(thiophen-2-yl)phenyl)cyclopropyl)benzamide] | 100 to 1000 nM
34 | Cc1ccc(OC[C@@H]2CCCN2C)cc1C(=O)NC1(c2cccc3ncccc23)CC1 [Compound 379, (S)-2-Methyl-5-((1-methylpyrrolidin-2-yl)methoxy)-N-(1-(quinolin-5-yl)cyclopropyl)benzamide] | < 100 nM
35 | Cc1ccc(OCCN(C)C)cc1C(=O)NC1(c2csc3ccccc23)CC1 [Compound 346, N-(1-(Benzo[b]thiophen-3-yl)cyclopropyl)-5-(2-(dimethylamino)ethoxy)-2-methylbenzamide] | 100 to 1000 nM
36 | Cc1ccc(OC[C@@H]2CCN2C)cc1C(=O)NC1(c2cccc3ncccc23)CC1 [Compound 391, (S)-2-Methyl-5-((1-methylazetidin-2-yl)methoxy)-N-(1-(quinolin-5-yl)cyclopropyl)benzamide] | < 100 nM
37 | Cc1ccc(C2CCNCC2)cc1C(=O)NC1(c2cccc3ccccc23)CC1 [Compound 407, 2-Methyl-N-(1-(naphthalen-1-yl)cyclopropyl)-5-(piperidin-4-yl)benzamide] | < 100 nM
38 | COc1ccnc(COc2ccc(C)c(C(=O)NC3(c4cc(OC)cc5ncccc45)CC3)c2)c1 [Compound 561, 5-((4-Methoxypyridin-2-yl)methoxy)-N-(1-(7-methoxyquinolin-5-yl)cyclopropyl)-2-methylbenzamide] | 100 to 1000 nM
